According to patent US20070148712A1, “Breast cancer and prostate cancer assessment” (Iowa State University Research Foundation, Inc., priority 2005, published 2007):

Columns and labels:
[1] = test system: 2E9 MAb; assay: Indirect competitive ELISA measuring equilibrium association constant and association/dissociation rates of MAb-hapten complexes; type: binding, mouse; details: for KA times higher than KA measured for the 4-OHE2-1-N3Ade adduct: comparator 4-OHE2-1-N3Ade; for KA higher by a factor than that obtained for NAcCys: comparator NAcCys; for Association constant, KA / Association rate, kon / Dissociation rate, koff: in the presence of 2E9 MAb, indirect competitive ELISA; for Association constant, KA: equilibrium; for 1/koff: dissociation time; for KA times smaller than the KA obtained for 4-OHE1-2-NAcCys: comparator 4-OHE1-2-NAcCys
Description: The equilibrium constant and the kinetic off- and on-rates for the analyte and the reporter molecule of interest must be known. The equilibrium association constants (KA) and association (kon)/dissociation (koff) rates for 4-OHE2-2-NAcCys and 4-OHE2-2-NAcCys-SAMSA conjugates are given in Table I, which also provides information on other closely related analytes, such as 4-OHE2, NAcCys, and 4-OHE2-1-N3Ade adduct. All values listed in Table I were determined using an indirect competitive ELISA. The value of KA for 4-OHE2-2-NAcCys-SAMSA was confirmed by an equilibrium dialysis method.
An ELISA was used to measure the association/dissociation rate constants of MAb-hapten (i.e., MAb-4-OHE1-2-NAcCys) and/or association/dissociation rate constants of related analytes. The MAb and suitable hapten(s) were mixed in solution to initiate the equilibrium reaction. At different time intervals, the amount of the free MAb in the reaction mixture was determined by an indirect ELISA. The association rate constants for 4-OHE1-2-NAcCys, 4-OHE1, NAcCys, and 4-OHE1-1-N3Ade were estimated by nonlinear regression against an equation introduced from the derivation of the mass balance of MAb-antigen/related analyte interaction (Zhuang et al., J Biosci. Bioeng. 92, 330-336 (2001); Foote et al., Proc. Natl. Acad. Sci. USA 92, 1254-1256 (1995); Goldbaum et al., J Immunol. 162, 6040-6045 (1999); Northrup et al., Proc. Natl. Acad. Sci. USA 89, 3338-3342 (1992)).
To determine the bound fraction of the antibody by ELISA, 3 rows and 8 columns of the microtiter plate were incubated with sufficient concentration of antigen to saturate the wells. After washing the plate with PBS 3 times, 4 rows of the plate including 3 rows coated with the antigen were blocked with 1% non-fat dried milk, 0.01% Triton-X100 in PBS for 3 hrs. Then the plate was washed with PBS with Triton-X100 (0.01%) 3 times. Equal volumes (160 μL) of the antigen (or related analyte) and PBS were mixed, and the mixture was put into the first well of the row that was blocked but not coated with the antigen (non-coated row).
The average absorbance of this column (Ab) measured in the last step of the ELISA corresponds to the blank. Equal volumes (160 μL) of the antibody solution and PBS were mixed, and the mixture was put into the last (8th) well of the non-coated row. The average absorbance of this column (Ao) corresponds to the total concentration of the antibody. Equal volumes of the antibody solution and antigen (or related analyte) solution were mixed quickly, and the mixture was immediately put into the second well of the non-coated row. At appropriate time intervals (after 10, 20, 23, 26 and 28 min), a new mixture of the antibody and hapten (or related analyte) solution were mixed quickly, immediately put into the wells of the non-coated row from the […]. The average absorbance of these columns (At) corresponds to the concentration of the free antibody at t=30, 20, 10, 7, 4 and 2 min for the […], respectively. Two min after the 7th well was filled with the mixture, using an eight-channel Pipetman, the mixtures on the row were quickly dispensed into the 3 rows that were coated with the antigen (or related analyte, 50 μL each). After 1 min the mixture was discarded and the plate was washed with PBS with Triton-X100 (0.01%) 3 times. The secondary antibody solution (HRP-conjugated) was added to the plate (50 μL), and the plate was incubated at 37° C. for 1 h. After washing with PBS and Triton-X100 (0.01%) 3 times, the substrate was added to the plate (50 μL). After incubation for 10 min at room temperature, the absorbance at 405 nm was measured.
Association constants KA for 4-OHE1 and NAcCys were also determined and are 2.5·10^5 and 2.1·10^6 M^−1, respectively. […] When the time required for the equilibrium reaction between the antigen and the antibody is shorter, one can detect or quantify the hapten faster. […]

[2] = test system: 2E9 MAb; assay: Competitive ELISA for 4-OHE1-2-NAcCys: inhibition of 2E9 MAb binding to immobilized antigen; design: species or system mouse; details: for IC50: wells coated with OA-4-OHE1(E2)-2-NAcCys-16a,β-MCC, regression analysis, read-out: I50 (quantity producing 50% inhibition of MAb binding in the ELISA)
Description: FIG. 5 is a diagram depicting inhibition profiles obtained for 4-OHE1-2-NAcCys (curve 1); NAcCys (curve 2), 4-OHE1(E2) (curve 3), and 4-OHE1-1-N3Ade (curve 4) using the 2E9 MAb in the competitive ELISA assay. Competitor-mediated reduction of MAb binding was expressed as % inhibition vs. untreated MAb and then plotted as a function of log quantity of competitor per well of the ELISA plate.
Wells were coated with OA-40HE1(E2)-2-NAcCys-16a,β-MCC, 500 ng/mL, 50 μL/well overnight, and blocked with 1% non-fat dried milk, 0.01% Triton-X100 in PBS for 2 h at 37° C. Competition curves were generated as described below. MAb and competitor molecules 4-OHE1(E2)-2-NAcCys (1), NAcCys (2), 4-OHE1(E2) (3), and 4-OHE1(E2)-1-N3Ade (4) were added to the wells at the same time and allowed to react with immobilized antigen for one hour before secondary antibody was added. The plates were washed with PBS with Triton-X100 (0.01%). Secondary antibody labeled with horseradish peroxidase (HRP) was used according to manufacturer's (BRL, Inc.) recommendations and incubated at 37° C. for 1 h. Plates were washed again, 2,2′-azino-bis(3-ethylbenzthiazoline-6-sulfonic acid) (ABTS) was added, and the plates were read at 405 nm on a BioRad-EL800 plate reader. The specificity of the 2E9 MAb raised against 4-OHE1(E2)-2-NAcCys was confirmed, and cross-reactivity to a number of related compounds was established.
The results are shown in FIG. 5, where the competitor-mediated reduction of MAb binding is expressed as % inhibition versus untreated MAb and plotted as a function of the concentration of competitor in the wells of the ELISA plate. Inhibition curves were developed for several analytes of interest; the I50's (quantity producing 50% inhibition of MAb binding in the ELISA) of these analytes were determined by regression analysis. […] For example, the I50 of 4-OHE-1-N3Ade (I50=1.5·10^−5M) was about 2700 times higher than the I50 of the 4-OHE1-2-NAcCys (I50=5.6·10^−9M).

[3] = test system: MAb against 4-OHE2-1-N3Ade; assay: Association constant of the MAb developed against 4-OHE2-1-N3Ade; type: binding

Molecule | Association constant, KA [1] [M⁻¹] | 1/koff ([1]; 2E9 MAb) [s] | Association rate, kon [1] [M⁻¹ s⁻¹] | Dissociation rate, koff [1] [s⁻¹] | KA times smaller than the KA obtained for 4-OHE1-2-NAcCys ([1]; 2E9 MAb) | also measured
4-OHE1(E2)-2-NAcCys | 1.8e+08 |  |  |  |  | KA times higher than KA measured for the 4-OHE2-1-N3Ade adduct ([1]; 2E9 MAb): about 2,700; KA higher by a factor than that obtained for NAcCys ([1]; 2E9 MAb): 100
4-OHE2-2-NAcCys-SAMSA [4-OHE2-NAcCys-SAMSA] | 5e+07 | 185 | 270000 | 0.0054 |  | 
C[C@]12CC[C@@H]3c4c(-n5cnc(=N)c6[nH]cnc65)cc(O)c(O)c4CC[C@H]3[C@@H]1CCC2=O [4-OHE1-1-N3Ade] |  |  |  |  | 2700 | I50 times higher than the I50 of 4-OHE1-2-NAcCys ([2]; comparator 4-OHE1-2-NAcCys): about 2700; IC50 [2]: 15 µM; Association constant, KA ([1]; listed as 4-OHE1-N3Ade): 67000 M⁻¹
CC(=O)NC(CSc1cc2c(c(O)c1O)CCC1C2CCC2(C)C(=O)CCC12)C(=O)O (stereo not drawn) [4-OHE1-2-NAcCys] |  |  |  |  |  | IC50 [2]: 0.0056 µM
C[C@]12CC[C@@H]3c4ccc(O)c(O)c4CC[C@H]3[C@@H]1CCC2=O [4-OHE1] | 250000 |  |  |  | about 720 | 
C[C@]12CC[C@@H]3c4c(-n5cnc(=N)c6[nH]cnc65)cc(O)c(O)c4CC[C@H]3[C@@H]1CC[C@@H]2O [4-OHE2-1-N3Ade] | 67000 | 10 | 6500 | 0.097 |  | KA [3]: 2e+08 M⁻¹
CC(=O)N[C@@H](CSc1cc2c(c(O)c1O)CC[C@@H]1[C@@H]2CC[C@]2(C)[C@@H](O)CC[C@@H]12)C(=O)O [4-OHE2-NAcCys, 4-OHE2-2-NAcCys] | 1.8e+08 | 391 | 460000 | 0.0026 |  | dissociation time 1/koff ([1]; 2E9 MAb): ~6.5 min; KA times higher than KA measured for the 4-OHE2-1-N3Ade adduct ([1]; 2E9 MAb): about 2,700; KA higher by a factor than that obtained for NAcCys ([1]; 2E9 MAb): 100; Association constant, KA ([1]; listed as 4-OHE2-2-NAcCys): 1.8e+08 M⁻¹
C[C@]12CC[C@@H]3c4ccc(O)c(O)c4CC[C@H]3[C@@H]1CC[C@@H]2O [4-OHE2] | 250000 | 17 | 15000 | 0.062 |  | 
CC(=O)N[C@@H](CS)C(=O)O [NAcCys, N-acetylcysteine] | 2.1e+06 | 27 | 77000 | 0.037 | ~86 | 
